Assay results published in patent US10501472B2, “Method to isolate inoscavin a from Fulviformes fastuosus and medicinal preparation thereof to treat rhabdomyosarcoma cancer conditions” (University of Colombo, priority 2015, dated 2019).
Entries after “also recorded” stand apart in the source; their conditions may differ. Read-outs that look alike come from different tables or passages of the source.

How the values were obtained:
RD cells [1] = test: Ethidium bromide/acridine orange staining for apoptosis; type: cell-based, human; details: 24 hours
Experimental: Ethidium bromide and acridine orange staining were performed to investigate the apoptosis induced by inoscavin A against RD cells. Ethidium bromide (EB) is only occupied by cells with damaged cell membranes. Acridine orange (AO) permeates via both live and dead cells. Cells were seeded in chamber slides and the confluent layer was treated with the test solution containing inoscavin A at different concentrations for 24 hours at 37° C. as described previously. The adherent cells were washed with 200 μL of PBS and 2 μL of the dye mixture containing ethidium bromide ([…]) and acridine orange ([…]) was placed on each well of the chamber slide. Chamber slides were examined immediately under the fluorescence microscope. Images were photographed using a Nikon D 700 camera connected to the microscope.

[2] = tested on: RD cell line (human rhabdomyosarcoma); test: MTT assay, antiproliferative activity against RD cell line; type: cell-based; details: for IC50: Homo sapiens, RD, MTT, 24 hour treatment
Experimental: (§1) RD and CC-1 cell lines were cultured in DMEM supplemented with 10% heat inactivated fetal bovine serum (FBS), 3% glutamine, sodium bicarbonate and antibiotic (penicillin/streptomycin). The cells were incubated at 37° C. in a humidified CO2 incubator.
Antiproliferative activities of inoscavin A against RD and CC-1 cells were determined using MTT (3, 4, 5-(dimethyl-thiazol-2-yl) 2-5-diphenyl tetrazolium bromide) assay. Metabolically active cells reduce MTT in to purple colored formazan crystals. Adherent cell lines were transferred with 0.12% trypsin and 0.5% EDTA and cells (2×10^5 cells/well) were seeded in 24-well plates and incubated overnight with 1 mL of the DMEM medium described above. The stock solution of inoscavin A was prepared in DMSO at a concentration of 1 mg/ml and subsequently diluted up to 1000 ng/ml in order to prepare the working standards. The resulting monolayers of RD cells and CC-1 cells (70% confluence) were treated with different concentrations of the test solution and incubated for 24 hours at 37° C.
In all experiments, cycloheximide (5 mM, 50 μl) was used as the positive control and negative control contained 0.25% DMSO in growth media. The culture medium was replaced with fresh medium (1 ml) after 24 hours and MTT (5 mg/ml; 100 μl) was added to each well. The cells were incubated at 37° C. for 3 hours and the medium was aspirated carefully. The remaining formazan crystals were solubilized with 750 μl of 0.05 M HCl (in 2-propanol) and absorbance was measured at 570 nm. Percentage cell viability was determined using the equation below.
(§2) The net absorbance from the wells of the untreated cells (negative control) was taken as the 100% viability. IC50 of the test solution against RD cells was determined by regression analysis of the corresponding dose response curve. CC50 of the test solution against CC-1 cell line was also calculated using the regression analysis. Safety of the compound for normal cells was determined in terms of selectivity index (SI) by calculating the ratio of CC50/IC50. SI value>2 is considered as safe.

[3] = tested on: CC-1 cell line (normal epithelial cells); test: MTT assay, cytotoxicity against normal CC-1 cell line; type: cell-based, mice; details: CC50 in CC-1 cells / IC50 in RD cells
Experimental: as §1
Antiproliferative activities of inoscavin A against RD and CC-1 cells were determined using MTT (3, 4, 5-(dimethyl-thiazol-2-yl) 2-5-diphenyl tetrazolium bromide) assay. Metabolically active cells reduce MTT in to purple colored formazan crystals. Adherent cell lines were transferred with 0.12% trypsin and 0.5% EDTA and cells (2×10^5 cells/well) were seeded in 24-well plates and incubated overnight with 1 mL of the DMEM medium described above. […]
In all experiments, cycloheximide (5 mM, 50 μl) was used as the positive control and negative control contained 0.25% DMSO in growth media. […] The remaining formazan crystals were solubilized with 750 μl of 0.05 M HCl (in 2-propanol) and absorbance was measured at 570 nm. Percentage cell viability was determined using the equation below.
as §2, with “Safety of the compound for normal cells was determined in terms of selectivity index (SI) by calculating the ratio of CC50/IC50. SI value>2 is considered as safe.” left out

RD cells [4] = test: Microscopic examination of morphological changes of treated cells; type: cell-based, human; details: highest concentration 50 ng/mL, 24 hours
Experimental: The morphological changes of RD cells and CC-1 cells after the treatment with different concentrations of the test solution over 24 hours were detected by microscopic examination of cells. Morphological changes were compared with the negative and positive controls under fluorescence microscope.

IC50 ([2]; mean of three independent sample preparations, read-out: IC50 against RD cells): 28 nM | IC50 ([2]; read-out: IC50 against RD cell line): 0.0128 µg/mL
Compound: CC1=CC(=O)C2(O1)c1c(cc(/C=C/c3ccc(O)c(O)c3)oc1=O)OC2c1ccc(O)c(O)c1 (stereo not shown) [inoscavin A, 2-(3,4-dihydroxyphenyl)-6-[(E)-2-(3,4-dihydroxyphenyl)ethenyl]-5′-methylspiro[2H-furo[3,2-c]pyran-3,2′-furan]-3′,4-dione]
apoptosis induction (AO/EB staining) (RD cells [1]): confirmed the apoptosis induced by inoscavin A; also recorded: mediated through apoptosis | maximum inhibition of cell growth ([2]; RD cells, concentrations over 60 ng/mL to 100 ng/mL): 75% | antiproliferative activity relative to mangiferin ([2]; RD cells, inoscavin A versus mangiferin): approximately 2500 times | selectivity index (SI), ratio of CC50/IC50 [3]: 6185.18 | morphological changes of RD cells (RD cells [4]): detached and round shape dead cells
